{
  "source": "patent US20240293312A1",
  "about": "“PHARMACEUTICAL COMPOSITIONS OF 3-(4-AMINO-1-OXO-1, 3 DIHYDRO-ISOINDOL-2-YL)-PIPERIDINE-2, 6-DIONE” (priority 2021, published 2024)",
  "origin": "cited, not measured here",
  "data": [
    {"smiles": "Nc1cccc2c1CN(C1CCC(=O)NC1=O)C2=O", "note": "(stereo not shown) [Lenalidomide, 3-(4-amino-1-oxo-1,3-dihydro-2H-isoindol-2-yl) piperidine-2,6-dione]", "values": [
      {"measurement": "solubility (in words)", "value": "soluble in organic solvent/water mixtures, and buffered aqueous solvents"}
    ]}
  ]
}
